Reference: publication PMC12596500, “Affinity-selected peptide ligands specifically bind i-motif DNA and modulate c-Myc gene expression” (Nucleic Acids Research, 2025)
Where two headings read alike, the source gives them in different places. Peptide text beside a SMILES is read from it.

Assays:
[1] = test system: human insulin promoter (ILPR) firefly luciferase reporter in HEK293 cells; assay: Dual-luciferase reporter assay, insulin promoter (ILPR); format: cell-based; conditions: HEK293, 4 h, 10 µM peptide with Nanocin Pro
[2] = test system: c-Myc promoter (Del-4) Firefly luciferase reporter in HEK293 cells; assay: Dual-luciferase reporter assay, c-Myc promoter; format: cell-based, human; conditions: HEK293, 4 h, 1, 5 or 10 µM peptide with Nanocin Pro; Firefly/Renilla normalised to 0.2% DMSO; P < 0.001
Procedure: Cell studies: HEK293 cells (ATCC CRL-1573™, passages 20–28), MCF-7 cells (ATCC HTB-22™, passages 21–28), and Panc-1 cells (ATCC CRL-1469™, passages 15–22) were cultured in Dulbecco's Modified Eagle's Medium (DMEM) medium supplemented with 10% fetal bovine serum (FBS; Gibco, UK) and maintained under standard cell culture conditions (37°C, 5% CO2). Cells were passaged every 3–4 days at ∼80% confluency. For experiments, the cells were seeded into six-well plates at a density of 1 × 10⁵ cells/well in DMEM containing 10% FBS. […] Cell proliferation was assessed at 4 and 24 h post-treatment using the CellTiter 96® Aqueous One Solution Cell Proliferation Assay (Promega, USA). For this, 20 µl of reagent was added per well, and absorbance at 490 nm was measured after 4 and 24 h using a SpectraMax iD3 plate reader (Molecular Devices, UK). Blank values (media without cells) were subtracted, and readings were normalized to DMSO-treated controls. […] Statistical significance was determined using one-way ANOVA followed by Holm–Šídák post-hoc analysis performed in GraphPad Prism version 10.1.2. […]

dsDNA = assay: UV titration, dsDNA; format: binding; set-up: key to Kd dsDNA, 100 mM KCl: Binding classified as non-specific (NS) showed no consistent or concentration-dependent pattern, under the tested conditions; key to Kd dsDNA: NS = non-specific binding indicates where no significant pattern of binding was observed at the concentration range of the experiment; conditions: for Kd dsDNA: UV titration at 350 nm, 10 µM peptide, 10 mM sodium cacodylate pH 6.6, no KCl; for Kd dsDNA, 100 mM KCl: UV titration, 10 mM sodium cacodylate 100 mM potassium chloride pH 6.6, two experiments
Procedure: (§1) UV titrations were recorded using an Agilent Cary-60 UV/VIS spectrometer with a 10 mm path length black-walled quartz cuvette. Oligonucleotides (c-MycC27, c-MycC52, c-MycG27, c-MycG52, DAPc, DAPg, and dsDNA; sequences listed in Supplementary Table S1) were annealed as 250 µM stock solutions in 10 mM sodium cacodylate buffer (pH 6.6) in the presence or absence of 100 mM KCl. Spectra were recorded at room temperature over a wavelength range of 300–500 nm with 1 nm intervals. Buffer-only spectra were recorded and subtracted from each dataset as blanks. Peptide ligands were prepared as 1 mM stock solutions in DMSO and added to the cuvette at a final concentration of 10 µM in buffer prior to DNA addition. DNA stock was diluted to 50 µM in buffer and was added stepwise to the peptide solution to reach 2.5 µM final concentration, followed by additions from the 250 µM DNA stock to reach final DNA concentrations of 30 or 50 µM. The absorbance at 350 nm was monitored and plotted against DNA concentration. Binding curves were fitted using a one-site binding model in GraphPad Prism version 10.1.2, and Kd values were determined from normalized data to represent the DNA-ligand bound fraction.
(§2) Despite the demonstrable importance of the extended five-tract C-rich sequence within the c-Myc promoter, most studies looking at ligand binding use the shorter sequences. […] Although the iM-targeting antibody is specific for iM as a structure, it also binds multiple types of iM-structures.

c-MycG52 = assay: UV titration, c-MycG52; format: binding
Procedure: as §1, §2

c-MycC52 = assay: UV titration, c-MycC52; format: binding; conditions: for Kd: average of three experiments ± SD, SD; for selectivity for c-MycC52 against the complementary G4 forming sequence: from UV titration Kd values
Procedure: as §1, §2

[3] = UV titration at 350 nm, 10 µM peptide, 10 mM sodium cacodylate pH 6.6, no KCl, binding did not plateau at the concentration range, read-out: Kd c-MycG52
[4] = read-out: Kd c-MycG52, 100 mM KCl, UV titration, 10 mM sodium cacodylate 100 mM potassium chloride pH 6.6, average of three experiments ± SD, SD
[5] = UV titration at 350 nm, 10 µM peptide, 10 mM sodium cacodylate pH 6.6, no KCl, room temperature, read-out: Kd c-MycC52
[6] = read-out: Kd c-MycC52, 100 mM KCl, UV titration, 10 mM sodium cacodylate 100 mM potassium chloride pH 6.6

Row | Structure (SMILES) | insulin promoter (ILPR) reporter response [1] | luciferase activity (c-Myc promoter activity) vs vehicle-only control [2] | Kd dsDNA (dsDNA) | Kd dsDNA, 100 mM KCl (dsDNA) | Kd (c-MycG52; [3]) [µM] | Kd (c-MycG52; [4]) [µM] | Kd (c-MycC52; [5]) [µM] | selectivity for c-MycC52 against the complementary G4 forming sequence (c-MycC52) | Kd (c-MycC52; [6]) [µM]
1 | CC(=O)N1CCC[C@H]1C(=O)N[C@H](C(=O)N[C@@H](CC(N)=O)C(=O)N[C@H](C(=O)N[C@@H](CO)C(=O)NCC(=O)N[C@@H](CCCNC(=N)N)C(=O)N[C@@H](CC(N)=O)C(=O)N[C@@H](Cc1ccc(O)cc1)C(=O)N[C@@H](CC(C)C)C(=O)N[C@@H](Cc1ccccc1)C(=O)N[C@@H](CS)C(N)=O)C(C)C)[C@@H](C)O [Pep-PTN] (Ac-PTNVSGRNYLFC-NH2) | no significant change in response | concentration-dependent decreases in luciferase activity | NS | NS | > 50 | 45 ± 4 | 0.93 ± 0.08 | about 50 fold | 1.54 ± 0.03
2 | CC(=O)N[C@H](C(=O)N[C@@H](CO)C(=O)N[C@@H](CCC(=O)O)C(=O)N[C@@H](C)C(=O)N[C@@H](Cc1c[nH]c2ccccc12)C(=O)N[C@@H](CCCCN)C(=O)N[C@@H](CCC(=O)O)C(=O)N[C@H](C(=O)N[C@@H](CCCCN)C(=O)NCC(=O)N[C@@H](Cc1ccccc1)C(=O)N[C@@H](Cc1ccccc1)C(N)=O)C(C)C)C(C)C [Pep-VSE] (Ac-VSEAWKEVKGFF-NH2) | no significant change in response | concentration-dependent decreases in luciferase activity | NS | NS | > 50 | 35 ± 3 | 0.43 ± 0.03 | ~100 fold | 0.69 ± 0.06
